For orientation: IC50 means the midpoint of a concentration-inhibition curve. A low value points to higher potency.

Experimental findings from US10590118B2, “Bicyclic heterocyclic derivatives as bromodomain inhibitors” (Orion Corporation, priority 2014, dated 2020) are described below.

The structures appear in SMILES notation. A value given as a limit tells only on which side of the number the result lay.

The target in this assay is T1, Bet bromodomain protein (BRD4) (Homo sapiens, UniProt O60885).
T1 construct: made in house
Briefly: Bet bromodomain TR-FRET assay. The class given is binding. The note with it: 300 nM acetyl histone peptide substrate, results given as Group A/B/C. As for the experimental part:
In-Vitro Biochemical Data of bicyclic heterocyclic derivatives in time-resolved fluorescence resonance energy transfer (TR-FRET) assay.
The Bet brommodomain TR-FRET assay has been used to identify compounds that bind to bet bromodomain and prevent its interaction with acetylated histone peptides.
In the assay, optimized concentration of in-house Bet bromodomain protein (BRD4) and 300 nM of acetyl histone peptide substrate were diluted in assay buffer (50 mM HEPES, pH: 7.5, 50 mM NaCl, 500 μM CHAPS) and were added to the positive control and test control wells in a 384 well plate. Substrate control wells have 300 nM of acetyl histone peptide substrate diluted in assay buffer. Buffer blank wells were added with assay buffer. The reaction mixture was allowed for incubation at room temperature for 30 mins. Stock solutions of test compounds at 20 mM DMSO are prepared. Compounds are serially diluted and added to the test wells in 384-well polypropylene plates. The reaction mixture was further incubated for 30 mins at room temperature on a plate shaker. 2 nM of Europium labeled streptavidn and 10 nM of XL-665 labeled antibody diluted in detection buffer (50 mM HEPES, pH: 7.5, 50 mM NaCl, 500 μM CHAPS and 800 mM KF) were added to all the wells excluding the buffer blank wells. The reaction plate was incubated for additional 30 mins at room temperature on plate shaker. The plate was read in Perkin Elmer WALLAC 1420 Multilabel Counter Victor 3 (Ex: 340 nm Em: 615 and 665 nm). The amount of displacement of the peptide was measured as ratio of specific 665 nm energy transfer signal to 615 nm signals. The compounds IC50 was determined by fitting the dose response data to sigmoid curve fitting equation using Graph Pad Prism software V5.
Background: In TR-FRET formats the signal depends on donor and acceptor labels being close together.
Compound `COc1cc2c(cc1-c1c(C)noc1C)OCC(=O)N2Cc1ccncc1` [Compound 17, 7-(3,5-dimethylisoxazol-4-yl)-6-methoxy-4-(pyridin-4-ylmethyl)-2H-benzo[b][1,4]oxazin-3(4H)-one] had a concentration for half-maximal inhibition (IC50) of at most 1000 nM. Compound `COc1cc2c(cc1-c1c(C)noc1C)OC(C)(C)C(=O)N2Cc1cccnc1` [Compound 49, 7-(3,5-dimethylisoxazol-4-yl)-6-methoxy-2,2-dimethyl-4-(pyridin-3-ylmethyl)-2H-benzo[b][1,4]oxazin-3(4H)-one] yielded a half-maximal inhibitory concentration (IC50) of at most 1000 nM. Turning to `COc1cc2c(cc1-c1c(C)noc1C)cc(C(O)(O)C(F)(F)F)c(=O)n2Cc1ccccn1` [Compound 104, 6-(3,5-dimethylisoxazol-4-yl)-7-methoxy-1-(pyridin-2-ylmethyl)-3-(2,2,2-trifluoro-1,1-dihydroxyethyl)quinolin-2(1H)-one], the IC50 was at most 1000 nM. Compound `COc1cc2c(ccc(=O)n2Cc2ccc(Cl)cn2)cc1-c1c(C)noc1C` [Compound 37, 1-((5-chloropyridin-2-yl)methyl)-6-(3,5-dimethylisoxazol-4-yl)-7-methoxyquinolin-2(1H)-one] came in with an IC50 of at most 1000 nM. As to `COc1cc2c(cc1-c1c(C)noc1C)OCCN2S(=O)(=O)c1cccnc1` [Compound 12, 7-(3,5-dimethylisoxazol-4-yl)-6-methoxy-4-(pyridin-3-ylsulfonyl)-3,4-dihydro-2H-benzo[b][1,4]oxazine], the half-maximal inhibitory concentration (IC50) lay within 1000 to 3000 nM. With `COc1cc2c(ccc(=O)n2Cc2ccc(F)cn2)cc1-c1c(C)noc1C` [Compound 45, 6-(3,5-dimethylisoxazol-4-yl)-1-((5-fluoropyridin-2-yl)methyl)-7-methoxyquinolin-2(1H)-one], the IC50 was at most 1000 nM. As to `Cc1noc(C)c1-c1cc2ccc(=O)n(Cc3ccccn3)c2cc1OCCCO` [Compound 84, 6-(3,5-dimethylisoxazol-4-yl)-7-(3-hydroxypropoxy)-1-(pyridin-2-ylmethyl)quinolin-2(1H)-one], the IC50 was at most 1000 nM. For `COc1cc2c(ccc(=O)n2C(C)c2cccnc2)cc1-c1c(C)noc1C` (stereo not drawn) [Compound 41, 6-(3,5-dimethylisoxazol-4-yl)-7-methoxy-1-(1-(pyridin-3-yl)ethyl)quinolin-2(1H)-one], the half-maximal inhibitory concentration (IC50) was at most 1000 nM.

In the case of `Cc1noc(C)c1-c1cc2ccc(=O)n(Cc3ccccn3)c2cc1OCCN(C)C` [Compound 76, 7-(2-(dimethylamino)ethoxy)-6-(3,5-dimethylisoxazol-4-yl)-1-(pyridin-2-ylmethyl)quinolin-2(1H)-one], the 50% inhibitory concentration (IC50) was over 3000 nM. In turn, `COc1ccc(CN2C(=O)COc3cc(-c4c(C)noc4C)c(OC)cc32)cn1` [Compound 26, 7-(3,5-dimethylisoxazol-4-yl)-6-methoxy-4-((6-methoxypyridin-3-yl)methyl)-2H-benzo[b][1,4]oxazin-3(4H)-one] yielded a half-maximal inhibitory concentration (IC50) of at most 1000 nM. The result for `COc1cc2c(cc1-c1c(C)noc1C)ncc(=O)n2Cc1ccc(Cl)cc1` [Compound 4, 1-(4-chlorobenzyl)-6-(3,5-dimethylisoxazol-4-yl)-7-methoxyquinoxalin-2(1H)-one] reads at most 1000 nM; that for `COc1cc2c(cc1-c1c(C)n[nH]c1C)OCC(=O)N2Cc1ccc(Cl)cc1` [Compound 65, 4-(4-chlorobenzyl)-7-(3,5-dimethyl-1H-pyrazol-4-yl)-6-methoxy-2H-benzo[b][1,4]oxazin-3(4H)-one], at most 1000 nM. Next, `Cc1noc(C)c1-c1cc2ccc(=O)n(Cc3ccccn3)c2cc1OCCN1CCOCC1` [Compound 75, 6-(3,5-dimethylisoxazol-4-yl)-7-(2-morpholinoethoxy)-1-(pyridin-2-ylmethyl)quinolin-2(1H)-one]: 1000 to 3000 nM. Consider `COc1cc2c(cc1-c1c(C)noc1C)OCC(=O)N2C(C)c1cccnc1` (single isomer, unassigned) [Compound 25, 7-(3,5-dimethytisoxazol-4-yl)-6-methoxy-4-(1-(pyridin-3-yl)ethyl)-2H-benzo[b][1,4]oxazin-3(4H)-one], for which the IC50 was in the range of 1000 to 3000 nM.

Turning to `COc1cc2c(cc1NC(=O)c1c(C)noc1C)OCC(=O)N2Cc1ccc(Cl)cc1` [Compound 94, N-(4-(4-chlorobenzyl)-6-methoxy-3-oxo-3,4-dihydro-2H-benzo [b][1,4]oxazin-7-yl)-3,5-dimethylisoxazole-4-carboxamide], the IC50 is over 3000 nM. The result for `COc1cc2c(cc1-c1c(C)noc1C)OCC(=O)N2C(C)c1ccccn1` (stereo not drawn) [Compound 31] reads 1000 to 3000 nM; that for `COc1cc2c(cc1-c1c(C)noc1C)C(=O)C(C)(C)C(=O)N2Cc1ccccn1` [Compound 51, 6-(3,5-dimethylisoxazol-4-yl)-7-methoxy-3,3-dimethyl-1-(pyridin-2-ylmethyl)quinoline-2,4(1H,3H)-dione], 1000 to 3000 nM; that for `Cc1noc(C)c1-c1cc2ccc(=O)n(Cc3ccccn3)c2cc1O` [Compound 72, 6-(3,5-dimethylisoxazol-4-yl)-7-hydroxy-1-(pyridin-2-ylmethyl)quinolin-2(1H)-one], at most 1000 nM. Take `COc1cc2c(cc1-c1c(C)noc1C)OCC(=O)N2Cc1ccc(C#N)cn1` [Compound 27, 6-((7-(3,5-dimethylisoxazol-4-yl)-6-methoxy-3-oxo-2H-benzo[b][1,4]oxazin-4(3H)-yl)methyl)nicotinonitrile]: the IC50 lay within 1000 to 3000 nM. Next, `COCCOc1cc2c(cc1-c1c(C)noc1C)OCC(=O)N2Cc1ccncc1` [Compound 71, 7-(3,5-dimethylisoxazol-4-yl)-6-(2-methoxyethoxy)-4-(pyridin-4-ylmethyl)-2H-benzo[b][1,4]oxazin-3(4H)-one]: over 3000 nM; `COc1cc2c(ccc(=O)n2Cc2cnccn2)cc1-c1c(C)noc1C` [Compound 8, 6-(3,5-dimethylisoxazol-4-yl)-7-methoxy-1-(pyrazin-3-ylmethyl)quinolin-2(1H)-one]: at most 1000 nM.

Compound `COc1cc2c(cc1-c1c(C)noc1C)OCC(=O)N2C(C)c1ccncc1` (single isomer, unassigned) [Compound 20, 7-(3,5-dimethylisoxazol-4-yl)-6-methoxy-4-(1-(pyridin-4-yl)ethyl)-2H-benzo[b][1,4]oxazin-3(4H)-one] showed an IC50 of at most 1000 nM.

`COc1cc2c(cc1-c1c(C)noc1C)c(C)cc(=O)n2Cc1ccccn1` [Compound 53, 6-(3,5-dimethylisoxazol-4-yl)-7-methoxy-4-methyl-1-(pyridin-2-ylmethyl)quinolin-2(1H)-one] gave an IC50 of 1000 to 3000 nM. Compound `COc1cc2c(cc1-c1c(C)noc1C)OCC(=O)N2C(C)c1ccc(Cl)cc1` (single isomer, unassigned) [Compound 33, 4-(1-(4-chlorophenyl)ethyl)-7-(3,5-dimethylisoxazol-4-yl)-6-methoxy-2H-benzo[b][1,4]oxazin-3(4H)-one] yielded an IC50 of 1000 to 3000 nM. The result for `COc1cc2c(ccc(=O)n2Cc2ccccn2)cc1-n1c(C)nnc1C` [Compound 3, 6-(3,5-dimethyl-4H-1,2,4-triazol-4-yl)-7-methoxy-1-(pyridin-2-ylmethyl)quinolin-2(1H)-one] reads over 3000 nM; that for `COc1cc2c(ccc(=O)n2C(=O)c2ccc(Cl)cc2)cc1-c1c(C)noc1C` [Compound 15, 1-(4-chlorobenzoyl)-6-(3,5-dimethylisoxazol-4-yl)-7-methoxyquinolin-2(1H)-one], over 3000 nM. Turning to `COc1cc2c(ccc(=O)n2Cc2nccs2)cc1-c1c(C)noc1C` [Compound 39, 6-(3,5-dimethylisoxazol-4-yl)-7-methoxy-1-(thiazol-2-ylmethyl)quinolin-2(1H)-one], the half-inhibitory concentration (IC50) was at most 1000 nM. The result for `Cc1noc(C)c1-c1cc2ccc(=O)n(Cc3ccccn3)c2cc1OCCN1CCCC1` [Compound 81, 6-(3,5-dimethylisoxazol-4-yl)-1-(pyridin-2-ylmethyl)-7-(2-(pyrrolidin-1-yl)ethoxy)quinolin-2(1H)-one] reads 1000 to 3000 nM; that for `COc1cc2c(cc1-c1c(C)noc1C)CCC(=O)N2Cc1ccccn1` [Compound 10, 6-(3,5-dimethylisoxazol-4-yl)-7-methoxy-1-(pyridin-2-ylmethyl)-3,4-dihydroquinolin-2(1H)-one], at most 1000 nM; that for `COc1cc2c(ccc(=O)n2Cc2ccccn2)cc1-c1c(C)n[nH]c1C` [Compound 66, 6-(3,5-dimethyl-1H-pyrazol-4-yl)-7-methoxy-1-(pyridin-2-ylmethyl)quinolin-2(1H)-one], at most 1000 nM. The compound `COc1cc2c(ccc(=O)n2Cc2ccc(Cl)nc2)cc1-c1c(C)noc1C` [Compound 67, 1-((6-chloropyridin-3-yl)methyl)-6-(3,5-dimethylisoxazol-4-yl)-7-methoxyquinolin-2(1H)-one] showed an IC50 of at most 1000 nM. The result for `COc1ccc(Cn2c(=O)ccc3cc(-c4c(C)noc4C)c(OC)cc32)nc1` [Compound 2, 6-(3,5-dimethytisoxazol-4-yl)-7-methoxy-1-((5-methoxypyridin-2-yl)methyl)quinolin-2(1H)-one] reads at most 1000 nM; that for `COc1cc2c(cc1-c1c(C)noc1C)OCC(=O)N2Cc1cccnc1` [Compound 21, 7-(3,5-dimethylisoxazol-4-yl)-6-methoxy-4-(pyridin-3-ylmethyl)-2H-benzo[b][1,4]oxazin-3(4H)-one], at most 1000 nM.
